The source of these data is patent US11433099B2, “Immunotherapy with B*08 restricted peptides and combination of peptides against cancers and related methods” (Immatics Biotechnologies GmbH, priority 2018, dated 2022).

Assay [1] has as its system CD8+ T cells of healthy HLA-B*08 donors. Put plainly: In vitro T-cell priming assay with aAPCs loaded with peptide/MHC complexes and anti-CD28 antibody, pMHC multimer readout. Format: cell-based, human. As to conditions: in vitro immunogenicity. From the text: In order to obtain information regarding the immunogenicity of the TUMAPs of the present invention, the inventors performed investigations using an in vitro T-cell priming assay based on repeated stimulations of CD8+ T cells with artificial antigen presenting cells (aAPCs) loaded with peptide/MHC complexes and anti-CD28 antibody.
In order to perform in vitro stimulations by artificial antigen presenting cells loaded with peptide-MHC complex (pMHC) and anti-CD28 antibody, the inventors first isolated CD8+ T cells from fresh HLA-B*08 leukapheresis products via positive selection using CD8 microbeads (Miltenyi Biotec, Bergisch-Gladbach, Germany) of healthy donors obtained from the University clinics Mannheim, Germany, after informed consent.
PBMCs and isolated CD8+ lymphocytes were incubated in T-cell medium (TCM) until use consisting of RPMI-Glutamax (Invitrogen, Karlsruhe, Germany) supplemented with 10% heat inactivated human AB serum (PAN-Biotech, Aidenbach, Germany), 100 U/ml Penicillin/100 μg/ml Streptomycin (Cambrex, Cologne, Germany), 1 mM sodium pyruvate (CC Pro, Oberdorla, Germany), 20 μg/ml Gentamycin (Cambrex). 2.5 ng/ml IL-7 (PromoCell, Heidelberg, Germany) and 10 U/ml IL-2 (Novartis Pharma, Nornberg, Germany) were also added to the TCM at this step.
Generation of pMHC/anti-CD28 coated beads, T-cell stimulations and readout was performed in a highly defined in vitro system using four different pMHC molecules per stimulation condition and 8 different pMHC molecules per readout condition.
The purified co-stimulatory mouse IgG2a anti human CD28 Ab 9.3 (Jung et al., 1987) was chemically biotinylated using Sulfo-N-hydroxysuccinimidobiotin as recommended by the manufacturer (Perbio, Bonn, Germany). Beads used were 5.6 μm diameter streptavidin coated polystyrene particles (Bangs Laboratories, Illinois, USA).
800.000 beads/200 μl were coated in 96-well plates in the presence of 4×12.5 ng different biotin-pMHC, washed and 600 ng biotin anti-CD28 were added subsequently in a volume of 200 μl. Stimulations were initiated in 96-well plates by co-incubating 1×10^6 CD8+ T cells with 2×10^5 washed coated beads in 200 μl TCM supplemented with 5 ng/ml IL-12 (PromoCell) for 3 days at 37° C. Half of the medium was then exchanged by fresh TCM supplemented with 80 U/ml IL-2 and incubating was continued for 4 days at 37° C. This stimulation cycle was performed for a total of three times. For the pMHC multimer readout using 8 different pMHC molecules per condition, a two-dimensional combinatorial coding approach was used as previously described (Andersen et al., 2012) with minor modifications encompassing coupling to 5 different fluorochromes. Finally, multimeric analyses were performed by staining the cells with Live/dead near IR dye (Invitrogen, Karlsruhe, Germany), CD8-FITC antibody clone SK1 (BD, Heidelberg, Germany) and fluorescent pMHC multimers. For analysis, a BD LSRII SORP cytometer equipped with appropriate lasers and filters was used. Peptide specific cells were calculated as percentage of total CD8+ cells. Evaluation of multimeric analysis was done using the FlowJo software (Tree Star, Oregon, USA). In vitro priming of specific multimer+CD8+ lymphocytes was detected by comparing to negative control stimulations.

The target of assay [2] is HLA-B*08:01 (Homo sapiens, UniProt P01889). The experiment in a line: MHC binding assay (UV-ligand exchange, beta2m ELISA). Conditions: MHC class I binding score; binding to HLA-B*08:01 ranged by peptide exchange yield (UV-ligand exchange, β2m ELISA). Summed up: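 Peptide–HLA complexes generated by UV-ligand exchange of a UV-cleavable peptide for the test peptide; exchange yield read by β2m ELISA on streptavidin capture (samples diluted 100-fold, 1 h 37 °C), HRP anti-β2m, TMB, A450. Quantified against refolded HLA-A*02:01/MLA-001 monomer standards (15-500 ng/ml).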
(An ELISA detects its analyte on a solid surface through an enzyme-linked reagent.)

Where [3] appears, read: HLA class I peptides, Table 10B.
Where [4] appears, read: Table 10A, HLA-B*08 pMHC, healthy donors.

“1 (ALKLKVAEL; listed as Homo sapiens) [compound 1]”: the “Wells positive [%]” value in assay [1] (setting [3]) is recorded as “++ (20%-49% = ++)”. For the same substance, the Peptide exchange entry in assay [2] is “++ (20% = ++)”.

Take “3 (SIQSRYISM; listed as Homo sapiens) [compound 3]”: the “Wells positive [%]” value in assay [1] (setting [3]) is listed as “++ (20%-49% = ++)”. For the same substance, the Peptide exchange entry in assay [2] is on record as “+++ (50% = +++)”. The matching figures for “5 (STMPKILAL; listed as Homo sapiens) [compound 5]”: “+ (<20% = +)” and “+++ (50% = +++)”.

Regarding “8 (FVRPKLVTI; listed as Homo sapiens) [compound 8]”, the “Wells positive [%]” value in assay [1] (setting [3]) was “+ (<20% = +)”. For the same substance, the Peptide exchange result in assay [2] is “+++ (50% = +++)”. The matching figures for “9 (LLKGKPRAL; listed as Homo sapiens) [compound 9]”: “+ (<20% = +)” and “++ (20% = ++)”. For “10 (MGKFKQCF; listed as Homo sapiens) [compound 10]” the same measures were “++++ (>=70% = ++++)” and “+++ (50% = +++)”. The matching figures for “11 (MAPLKMLAL; listed as Homo sapiens) [compound 11]”: “+++ (50%-69%= +++)” and “+++ (50% = +++)”.

Consider “13 (EPFTRPVL; listed as Homo sapiens) [compound 13]”, for which, in assay [1] (setting [3]), the “Wells positive [%]” value is on record as “+ (<20% = +)”. For the same substance, the Peptide exchange entry in assay [2] was “++ (20% = ++)”. In the case of “18 (LSLVRKAL; listed as Homo sapiens) [compound 18]”, the “Wells positive [%]” value in assay [1] (setting [3]) is given as “++ (20%-49% = ++)”. Also, the Peptide exchange result in assay [2] is “+++ (50% = +++)”. Take “19 (FTLLRRLSL; listed as Homo sapiens) [compound 19]”: the “Wells positive [%]” value in assay [1] (setting [3]) is “++++ (>=70% = ++++)”. Besides, the Peptide exchange entry in assay [2] was “+++ (50% = +++)”. The matching figures for “20 (ILKRFLAC; listed as Homo sapiens) [compound 20]”: “+ (<20% = +)” and “+++ (50% = +++)”. With “21 (RILKRFLAC; listed as Homo sapiens) [compound 21]”, the “Wells positive [%]” value in assay [1] (setting [3]) is on record as “+ (<20% = +)”. In assay [2], the Peptide exchange entry is on record as “+++ (50% = +++)”. Turning to “22 (EVRLKPIL; listed as Homo sapiens) [compound 22]”, in assay [1] (setting [3]), the “Wells positive [%]” value is listed as “+ (<20% = +)”. For the same substance, the Peptide exchange result in assay [2] was “++ (20% = ++)”. With “25 (HLHPKGREL; listed as Homo sapiens) [compound 25]”, in assay [1] (setting [3]), the “Wells positive [%]” value is “++ (20%-49% = ++)”. Moreover, the Peptide exchange result in assay [2] is “++ (20% = ++)”. For “29 (ELFLHPVL; listed as Homo sapiens) [compound 29]” the same measures were “++ (20%-49% = ++)” and “++ (20% = ++)”.

Take “31 (SPRVKWTF; listed as Homo sapiens) [compound 31]”: in assay [1] (setting [3]), the “Wells positive [%]” value is listed as “++++ (>=70% = ++++)”. Also, the Peptide exchange entry in assay [2] is on record as “++ (20% = ++)”. For “33 (WIGLRNLDL; listed as Homo sapiens) [compound 33]”, the “Wells positive [%]” value in assay [1] (setting [3]) is reported as “+ (<20% = +)”. In assay [2], the Peptide exchange entry was “+++ (50% = +++)”. With “34 (IYRKKYIL; listed as Homo sapiens) [compound 34]”, the “Wells positive [%]” value in assay [1] (setting [3]) is reported as “+ (<20% = +)”. Further, in assay [2], the Peptide exchange result is “++ (20% = ++)”. Turning to “35 (ELFQRPVL; listed as Homo sapiens) [compound 35]”, the “Wells positive [%]” value in assay [1] (setting [3]) is on record as “+ (<20% = +)”. For the same substance, the Peptide exchange entry in assay [2] was “++ (20% = ++)”. For “36 (IVKIKVQEL; listed as Homo sapiens) [compound 36]” the same measures were “++ (20%-49% = ++)” and “++ (20% = ++)”. On to “37 (EAFSRASL; listed as Homo sapiens) [compound 37]”, for which, in assay [1] (setting [3]), the “Wells positive [%]” value is “++ (20%-49% = ++)”. Moreover, in assay [2], the Peptide exchange result is “++ (20% = ++)”. With “38 (EVYQKIIL; listed as Homo sapiens) [compound 38]”, the “Wells positive [%]” value in assay [1] (setting [3]) was “++++ (>=70% = ++++)”. Further, the Peptide exchange result in assay [2] was “+++ (50% = +++)”. The matching figures for “40 (ESMLKTTL; listed as Homo sapiens) [compound 40]”: “+ (<20% = +)” and “++ (20% = ++)”.

Take “41 (RGALRTLSL; listed as Homo sapiens) [compound 41]”: the “Wells positive [%]” value in assay [1] (setting [3]) is recorded as “+ (<20% = +)”. The Peptide exchange result in assay [2] is reported as “++ (20% = ++)”.

For the substance “42 (VLRRKTLL; listed as Homo sapiens) [compound 42]”, the “Wells positive [%]” value in assay [1] (setting [3]) is on record as “+ (<20% = +)”. In assay [2], the Peptide exchange result is “++ (20% = ++)”. On to “45 (RLKVALSTL; listed as Homo sapiens) [compound 45]”, for which, in assay [1] (setting [3]), the “Wells positive [%]” value is on record as “+ (<20% = +)”. Besides, the Peptide exchange entry in assay [2] is reported as “+++ (50% = +++)”. Turning to “47 (HSRVKLAQL; listed as Homo sapiens) [compound 47]”, the “Wells positive [%]” value in assay [1] (setting [3]) is reported as “++ (20%-49% = ++)”. Besides, the Peptide exchange result in assay [2] is on record as “++ (20% = ++)”. With “48 (ELALRQTV; listed as Homo sapiens) [compound 48]”, the “Wells positive [%]” value in assay [1] (setting [3]) is reported as “+ (<20% = +)”. Moreover, in assay [2], the Peptide exchange entry is reported as “++ (20% = ++)”.

As for “49 (FLRVFTDSL; listed as Homo sapiens) [compound 49]”, in assay [1] (setting [3]), the “Wells positive [%]” value is “+ (<20% = +)”. For the same substance, the Peptide exchange result in assay [2] is “+++ (50% = +++)”. The matching figures for “57 (MPLKHYLL; listed as Homo sapiens) [compound 57]”: “+++ (50%-69%= +++)” and “++ (20% = ++)”.

On to “58 (LPKKMKLL; listed as Homo sapiens) [compound 58]”, for which, in assay [1] (setting [3]), the “Wells positive [%]” value is reported as “++ (20%-49% = ++)”. The Peptide exchange entry in assay [2] is listed as “++ (20% = ++)”.

As for “60 (MLHIKKAEV; listed as Homo sapiens) [compound 60]”, the “Wells positive [%]” value in assay [1] (setting [3]) was “+ (<20% = +)”. Moreover, in assay [2], the Peptide exchange result is given as “+++ (50% = +++)”. For “62 (FMLAKEASL; listed as Homo sapiens) [compound 62]” the same measures were “+ (<20% = +)” and “++ (20% = ++)”. For “63 (YVKRKTNVL; listed as Homo sapiens) [compound 63]” the same measures were “+ (<20% = +)” and “++ (20% = ++)”.

As for “66 (DLKKTRVL; listed as Homo sapiens) [compound 66]”, the “Wells positive [%]” value in assay [1] (setting [3]) was “+ (<20% = +)”. In addition, the Peptide exchange entry in assay [2] is listed as “++ (20% = ++)”. In the case of “68 (DLKIPRYPV; listed as Homo sapiens) [compound 68]”, in assay [1] (setting [3]), the “Wells positive [%]” value is given as “+++ (50%-69%= +++)”. Further, the Peptide exchange entry in assay [2] is “+++ (50% = +++)”.

For the substance “278 (RAQLKLVAL; listed as Homo sapiens) [compound 278]”, in assay [1] (setting [4]), the “Wells positive [%]” value is reported as “+ (<20% = +)”.

“283 (MAQFKEISL; listed as Homo sapiens) [compound 283]”: the “Wells positive [%]” value in assay [1] (setting [4]) is on record as “++++ (>=70% = ++++)”.

Turning to “284 (ELKKKEYEEL; listed as Homo sapiens) [compound 284]”, in assay [1] (setting [4]), the “Wells positive [%]” value is “+ (<20% = +)”. For “285 (EAMLRNKEL; listed as Homo sapiens) [compound 285]”, the “Wells positive [%]” value in assay [1] (setting [4]) is “+ (<20% = +)”. For the substance “286 (ILLPRTVSL; listed as Homo sapiens) [compound 286]”, in assay [1] (setting [4]), the “Wells positive [%]” value was “+ (<20% = +)”.
